Experimental data reported in patent USRE49850E1, “N-(pyridin-2-yl)-4-(thiazol-5-yl)pyrimidin-2-amine derivatives as therapeutic compounds” (AUCENTRA THERAPEUTICS PTY LTD, priority 2015, dated 2024).

How the values were obtained:
CDK1B = CDK1B (Homo sapiens, UniProt P06493); assay: Kinase assay CDK1B (radiometric profiling service); format: biochemical; details: for Ki: apparent Ki calculated from Km (ATP) and IC50, read-out: CDK inhibition Ki CDK1B; for remaining activity at 10 µM: compound at 10 μM, read-out: % remaining enzymatic activity at 10 μM CDK1B
Method: (§1) Eurofins Pharma Discovery or Reaction Biology Corporation Kinase Profiler services were used to measure inhibition of CDKs and other kinases by radiometric assay. Inhibition of CDK4/D1, CDK6/D3 and CDK9/T1 were also determined in-house using ADP Glo Kinase assays (Promega Corporation, Madison, USA). Briefly, the kinase reaction for CDK4/D1 and CDK6/D3 was performed with kinase reaction buffer ([…] Tris base pH 7.5, 20 mM MgCl2, 0.4 mM DTT), 0.1 mg/ml BSA and RB-CTF substrate (retinoblastoma protein1 C-terminal fraction). For CDK9/CyclinT1, the kinase reaction was performed with standard assay buffer and Kinase Dilution Buffer and RBER-IRStide substrate. Serial dilutions of 1:3 were prepared for test compounds for 10 concentrations (from 10 μM to 0.5 nM). The kinase reactions were started by addition of ATP, incubated for 40 min at 37° C. and then stopped by adding 10 μL of ADP Glo reagent. After incubation at room temperature in the dark for 40 min, 20 μL of kinase detection reagent was added per well and incubated for 40 min. Luminescence was measured using an EnVision Multilabel plate reader (PerkinElmer, Buckinghamshire, UK). Positive and negative controls were perfonned in the presence and absence of CDK kinases, respectively. Half-maximal inhibition (IC50) values were calculated using a 4-parameter logistic non-linear regression model with Graphpad prism (Version 6.0). Apparent inhibition constants (Ki) values were calculated from Km (ATP) and IC50 values for the respective kinases.

CDK 2A = CDK 2A (Homo sapiens, UniProt P24941); assay: Kinase assay CDK2A (radiometric profiling service); format: biochemical; details: for Ki: apparent Ki calculated from Km (ATP) and IC50, read-out: CDK inhibition Ki CDK 2A; for remaining activity at 10 µM: compound at 10 μM, read-out: % remaining enzymatic activity at 10 μM CDK 2A
Method: as §1

CDK4D1 = molecular target: T1, CDK4D1 (Homo sapiens, UniProt P11802); assay: Kinase assay CDK4/D1 (radiometric or ADP Glo); format: biochemical; details: apparent Ki calculated from Km (ATP) and IC50; read-out: CDK inhibition Ki CDK4D1
T1 construct: purchased Eurofins Pharma Discovery or Reaction Biology Corporation (service)
Method: as §1

CDK7H = CDK7H (Homo sapiens, UniProt P50613); assay: Kinase assay CDK7H (radiometric profiling service); format: biochemical; details: for Ki: apparent Ki calculated from Km (ATP) and IC50, read-out: CDK inhibition Ki CDK7H; for remaining activity at 10 µM: compound at 10 μM, read-out: % remaining enzymatic activity at 10 μM CDK7H
Method: as §1

CDK9T1 = molecular target: T2, CDK9T1 (Homo sapiens, UniProt P50750); assay: Kinase assay CDK9/T1 (radiometric or ADP Glo); format: biochemical; details: for Ki: apparent Ki calculated from Km (ATP) and IC50, read-out: CDK inhibition Ki CDK9T1; for remaining activity at 10 µM: compound at 10 μM, read-out: % remaining enzymatic activity at 10 μM CDK9T1
T2 construct: purchased Eurofins Pharma Discovery or Reaction Biology Corporation (service)
Method: as §1

MV4-11 = assay: Cell viability assay (resazurin, leukemia cell line) MV4-11; format: cell-based, human; details: Homo sapiens, MV4-11, 72 h; read-out: Anti-proliferative activity GI50 MV4-11
From the text: (§2) Compounds from Example 1 were subjected to a standard MTT (3-(4,5-dimethylthiazol-2-yl)-2,5-diphenyltetrazolium bromide) and resazurin assays on solid tumour cell lines and leukemia cell lines, respectively, as previously reported (Wang S et al., J Med Chem 47:1662-1675, 2004 and Diab S. et al. CheMedChem 9:962-972, 2014).

MDA-MB-453 = assay: Cell viability assay (MTT, solid tumour cell line) MDA-MB-453; format: cell-based, human; details: Homo sapiens, MDA-MB-453, 72 h; read-out: Anti-proliferative activity GI50 MDA-MB-453
From the text: as §2

CDK6D3 = molecular target: T3, CDK6D3 (Homo sapiens, UniProt Q00534); assay: Kinase assay CDK6/D3 (radiometric or ADP Glo); format: biochemical; details: for Ki: apparent Ki calculated from Km (ATP) and IC50, read-out: CDK inhibition Ki CDK6D3; for remaining activity at 10 µM: compound at 10 μM, read-out: % remaining enzymatic activity at 10 μM CDK6D3
T3 construct: purchased Eurofins Pharma Discovery or Reaction Biology Corporation (service)
Method: as §1

Sequence of CDK7H (P50613 whole entry): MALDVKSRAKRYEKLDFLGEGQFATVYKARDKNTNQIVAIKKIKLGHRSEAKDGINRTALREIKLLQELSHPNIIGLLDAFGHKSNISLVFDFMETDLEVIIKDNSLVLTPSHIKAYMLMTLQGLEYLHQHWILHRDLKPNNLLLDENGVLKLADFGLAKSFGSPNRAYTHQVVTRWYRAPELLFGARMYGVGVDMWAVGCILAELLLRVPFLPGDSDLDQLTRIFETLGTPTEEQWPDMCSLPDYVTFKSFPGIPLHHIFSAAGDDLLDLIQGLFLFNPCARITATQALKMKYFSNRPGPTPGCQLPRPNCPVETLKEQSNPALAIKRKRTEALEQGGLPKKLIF
Sequence of CDK7H (P51946 whole entry partner): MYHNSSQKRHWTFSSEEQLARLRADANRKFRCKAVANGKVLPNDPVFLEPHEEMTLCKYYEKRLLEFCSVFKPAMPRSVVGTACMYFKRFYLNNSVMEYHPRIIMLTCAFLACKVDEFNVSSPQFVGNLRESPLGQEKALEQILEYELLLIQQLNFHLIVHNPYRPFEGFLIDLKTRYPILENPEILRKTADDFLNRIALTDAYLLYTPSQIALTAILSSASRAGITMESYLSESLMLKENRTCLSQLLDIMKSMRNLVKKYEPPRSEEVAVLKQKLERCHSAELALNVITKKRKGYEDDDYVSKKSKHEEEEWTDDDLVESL
Sequence of CDK7H (P51948 whole entry partner): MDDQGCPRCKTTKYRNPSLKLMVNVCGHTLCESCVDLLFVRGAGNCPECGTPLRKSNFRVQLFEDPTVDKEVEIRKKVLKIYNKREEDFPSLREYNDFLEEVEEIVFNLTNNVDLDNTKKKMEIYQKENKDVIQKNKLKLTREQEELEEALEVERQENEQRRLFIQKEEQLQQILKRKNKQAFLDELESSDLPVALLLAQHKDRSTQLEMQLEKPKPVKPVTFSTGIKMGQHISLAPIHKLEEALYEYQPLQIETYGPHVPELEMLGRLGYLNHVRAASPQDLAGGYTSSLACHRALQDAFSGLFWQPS
T1 sequence (P11802 whole entry): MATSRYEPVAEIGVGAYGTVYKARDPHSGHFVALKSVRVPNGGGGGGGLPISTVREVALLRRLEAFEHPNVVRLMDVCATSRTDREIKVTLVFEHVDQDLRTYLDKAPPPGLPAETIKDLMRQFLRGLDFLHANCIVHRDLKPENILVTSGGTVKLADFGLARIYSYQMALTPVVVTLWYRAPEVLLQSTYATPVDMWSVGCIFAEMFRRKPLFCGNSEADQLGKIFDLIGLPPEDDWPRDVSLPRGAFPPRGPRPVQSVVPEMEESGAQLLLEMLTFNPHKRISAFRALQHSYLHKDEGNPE
T1 sequence (P24385 whole entry partner): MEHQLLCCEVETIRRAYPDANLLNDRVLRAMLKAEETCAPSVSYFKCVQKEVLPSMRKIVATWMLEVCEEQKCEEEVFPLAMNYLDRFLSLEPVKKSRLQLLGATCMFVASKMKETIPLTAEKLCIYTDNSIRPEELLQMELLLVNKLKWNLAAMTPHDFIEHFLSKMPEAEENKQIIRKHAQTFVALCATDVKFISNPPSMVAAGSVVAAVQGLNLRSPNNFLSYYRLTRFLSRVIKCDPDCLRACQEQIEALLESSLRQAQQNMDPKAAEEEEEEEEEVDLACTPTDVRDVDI
T2 sequence (P50750 whole entry): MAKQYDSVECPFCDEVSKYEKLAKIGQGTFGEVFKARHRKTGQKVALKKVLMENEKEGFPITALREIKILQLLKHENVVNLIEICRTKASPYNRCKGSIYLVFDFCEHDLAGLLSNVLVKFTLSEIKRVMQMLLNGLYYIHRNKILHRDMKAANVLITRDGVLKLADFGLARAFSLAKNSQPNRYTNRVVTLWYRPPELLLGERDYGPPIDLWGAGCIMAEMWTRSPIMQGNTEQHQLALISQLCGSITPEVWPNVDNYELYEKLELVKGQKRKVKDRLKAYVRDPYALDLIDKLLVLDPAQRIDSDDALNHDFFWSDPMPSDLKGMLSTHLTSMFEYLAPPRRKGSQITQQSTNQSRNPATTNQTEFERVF
T2 sequence (O60563 whole entry partner): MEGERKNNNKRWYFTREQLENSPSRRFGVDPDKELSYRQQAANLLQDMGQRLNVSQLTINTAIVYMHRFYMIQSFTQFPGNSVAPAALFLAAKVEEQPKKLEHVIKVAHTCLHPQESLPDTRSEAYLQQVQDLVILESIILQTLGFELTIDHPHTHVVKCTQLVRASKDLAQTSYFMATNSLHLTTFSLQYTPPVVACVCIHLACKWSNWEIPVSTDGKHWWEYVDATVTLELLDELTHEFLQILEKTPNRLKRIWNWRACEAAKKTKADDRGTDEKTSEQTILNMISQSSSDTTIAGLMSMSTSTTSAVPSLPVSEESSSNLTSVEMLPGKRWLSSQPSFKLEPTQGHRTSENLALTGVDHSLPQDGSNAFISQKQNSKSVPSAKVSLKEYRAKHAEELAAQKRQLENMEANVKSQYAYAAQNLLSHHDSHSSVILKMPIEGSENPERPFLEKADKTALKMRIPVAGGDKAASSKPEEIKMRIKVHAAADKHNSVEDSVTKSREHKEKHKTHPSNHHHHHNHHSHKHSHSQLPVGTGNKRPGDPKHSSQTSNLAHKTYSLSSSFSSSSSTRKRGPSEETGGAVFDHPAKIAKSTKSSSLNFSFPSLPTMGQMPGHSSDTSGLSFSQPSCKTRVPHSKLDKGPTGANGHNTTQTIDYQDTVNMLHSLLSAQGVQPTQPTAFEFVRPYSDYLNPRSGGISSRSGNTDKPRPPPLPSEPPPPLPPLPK
T3 sequence (Q00534 whole entry): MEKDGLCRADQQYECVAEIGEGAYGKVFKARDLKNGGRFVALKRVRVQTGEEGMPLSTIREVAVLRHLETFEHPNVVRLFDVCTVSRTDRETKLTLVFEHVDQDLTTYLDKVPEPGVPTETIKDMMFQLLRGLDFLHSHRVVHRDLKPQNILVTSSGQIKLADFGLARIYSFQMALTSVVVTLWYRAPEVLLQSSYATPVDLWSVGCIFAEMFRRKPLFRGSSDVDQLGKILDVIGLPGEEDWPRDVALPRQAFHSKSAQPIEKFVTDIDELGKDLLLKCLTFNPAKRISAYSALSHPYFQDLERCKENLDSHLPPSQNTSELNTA
T3 sequence (P30281 whole entry partner): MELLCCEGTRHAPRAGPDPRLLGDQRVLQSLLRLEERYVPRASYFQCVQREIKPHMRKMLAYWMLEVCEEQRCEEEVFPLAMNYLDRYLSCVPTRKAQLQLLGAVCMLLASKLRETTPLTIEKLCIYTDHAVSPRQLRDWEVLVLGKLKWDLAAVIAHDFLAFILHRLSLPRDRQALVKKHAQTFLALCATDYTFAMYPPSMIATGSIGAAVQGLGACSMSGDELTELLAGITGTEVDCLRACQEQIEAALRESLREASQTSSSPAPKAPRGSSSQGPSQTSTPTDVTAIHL
Sequence of CDK1B (P06493 whole entry): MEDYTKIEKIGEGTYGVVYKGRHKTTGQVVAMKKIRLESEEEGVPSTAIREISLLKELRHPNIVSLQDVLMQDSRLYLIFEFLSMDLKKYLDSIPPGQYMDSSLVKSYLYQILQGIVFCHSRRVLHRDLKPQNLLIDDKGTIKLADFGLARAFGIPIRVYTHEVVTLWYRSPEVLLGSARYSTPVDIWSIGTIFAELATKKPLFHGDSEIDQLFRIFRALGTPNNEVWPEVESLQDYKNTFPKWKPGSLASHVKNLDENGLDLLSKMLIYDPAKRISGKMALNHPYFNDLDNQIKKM
Sequence of CDK1B (P14635 whole entry partner): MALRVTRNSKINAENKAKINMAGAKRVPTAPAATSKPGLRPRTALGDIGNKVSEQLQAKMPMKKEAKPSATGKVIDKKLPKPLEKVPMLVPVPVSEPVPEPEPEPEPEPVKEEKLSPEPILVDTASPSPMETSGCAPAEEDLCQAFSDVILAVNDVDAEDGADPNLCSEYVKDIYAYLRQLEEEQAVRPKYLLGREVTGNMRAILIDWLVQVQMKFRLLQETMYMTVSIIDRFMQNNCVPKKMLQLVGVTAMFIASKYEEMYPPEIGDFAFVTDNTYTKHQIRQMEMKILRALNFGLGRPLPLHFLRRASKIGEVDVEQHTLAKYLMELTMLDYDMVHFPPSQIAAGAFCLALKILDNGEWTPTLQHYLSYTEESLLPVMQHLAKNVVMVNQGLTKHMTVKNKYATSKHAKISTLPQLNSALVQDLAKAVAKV

Structure (SMILES)	Ki (CDK1B)	Ki (CDK 2A)	Ki (CDK4D1)	Ki (CDK7H)	Ki (CDK9T1)	GI50 (MV4-11)	GI50 (MDA-MB-453)	Ki (CDK6D3)	remaining activity at 10 µM (CDK1B)	remaining activity at 10 µM (CDK 2A)	remaining activity at 10 µM (CDK7H)	remaining activity at 10 µM (CDK9T1)	remaining activity at 10 µM (CDK6D3)
CCc1nc(C)c(-c2ccnc(Nc3ccc(N4CCN(C(C)=O)CC4)cn3)n2)s1 [Compound 10, 1-(4-(6-((4-(2-ethyl-4-methylthiazol-5-yl)pyrimidin-2-yl)amino)pyridin-3-yl)piperazin-1-yl)ethan-1-one]	> 5000 nM	> 5000 nM	290 nM	> 5000 nM	> 5000 nM	5370 ± 1680 nM	> 10000 nM	–	–	–	–	–	–
CCc1nc(C)c(-c2nc(Nc3ccc(N4CCN(C(C)=O)CC4)cn3)ncc2Cl)s1 [Compound 11, 1-(4-(6-((5-chloro-4-(2-ethyl-4-methylthiazol-5-yl)pyrimidin-2-yl)amino)pyridin-3-yl)piperazin-1-yl)ethan-1-one]	> 5000 nM	> 5000 nM	250 nM	> 5000 nM	> 5000 nM	> 10000 nM	> 10000 nM	–	–	–	–	–	–
CNc1nc(C)c(-c2ccnc(Nc3ccc(N4CCN(Cc5ccccc5)CC4)cn3)n2)s1 [Compound 39, 5-(2-((5-(4-benzylpiperazin-1-yl)pyridin-2-yl)amino)pyrimidin-4-yl)-N,4-dimethylthiazol-2-amine]	> 5000 nM	> 5000 nM	169 nM	> 5000 nM	> 5000 nM	45900 ± 2520 nM	–	2710 nM	–	–	–	–	–
CCN1CCN(c2ccc(Nc3nccc(-c4sc(NC5CCCC5)nc4C)n3)nc2)CC1 [Compound 66, N-cyclopentyl-5-(2-((5-(4-ethylpiperazin-1-yl)pyridin-2-yl)amino)pyrimidin-4-yl)-4-methylthiazol-2-amine]	3020 nM	–	–	780 nM	–	9 ± 1 nM	287 ± 70 nM	–	–	–	–	–	–
Cc1nc(N(C)C2CCCC2)sc1-c1ccnc(Nc2ccc(N3CCNCC3)cn2)n1 [Compound 85, N-cyclopentyl-N,4-dimethyl-5-(2-((5-(piperazin-1-yl)pyridin-2-yl)amino)pyrimidin-4-yl)thiazol-2-amine]	1390 nM	174 nM	2 nM	–	1800 nM	285 ± 41 nM	402 ± 6 nM	10 nM	–	–	–	–	–
Cc1nc(N(C2CCCC2)C2CCCC2)sc1-c1ccnc(Nc2ccc(N3CCNCC3)cn2)n1 [Compound 88, N,N-dicyclopentyl-4-methyl-5-(2-((5-(piperazin-1-yl)pyridin-2-yl)amino)pyrimidin-4-yl)thiazol-2-amine]	> 15000 nM	> 5000 nM	–	> 5000 nM	> 5000 nM	714 ± 179 nM	373 ± 117 nM	–	–	–	–	–	–
Cc1nc(Nc2ccccc2)sc1-c1ccnc(Nc2ccc(N3CCNCC3)cn2)n1 [Compound 89, 4-Methyl-N-phenyl-5-(2-((5-(piperazin-1-yl)pyridin-2-yl)amino)pyrimidin-4-yl)thiazol-2-amine]	2040 nM	> 5000 nM	5 nM	–	436 nM	56 ± 11 nM	279 ± 44 nM	66 nM	–	–	–	–	–
CC(=O)N1CCN(c2ccc(Nc3nccc(-c4sc(=O)[nH]c4C)n3)nc2)CC1 [Compound 95, 5-(2-((5-(4-acetylpiperazin-1-yl)pyridin-2-yl)amino)pyrimidin-4-yl)-4-methylthiazol-2(3H)-one]	–	–	–	–	–	2240 ± 43 nM	> 10000 nM	–	55%	40%	68%	17%	25%
Cc1c(-c2ccnc(Nc3ccc(N4CCNCC4)cn3)n2)sc(=O)n1C1CCCC1 [Compound 96, 3-cyclopentyl-4-methyl-5-(2-((5-(piperazin-1-yl)pyridin-2-yl)amino)pyrimidin-4-yl)thiazol-2(3H)-one]	–	–	–	–	–	792 ± 74 nM	2860 ± 988 nM	–	63%	61%	22%	15%	11%
Cc1[nH]c(=O)sc1-c1ccnc(Nc2ccc(N3CCNCC3)cn2)n1 [Compound 97, 4-methyl-5-(2-((5-(piperazin-1-yl)pyridin-2-yl)amino)pyrimidin-4-yl)thiazol-2(3H)-one]	–	–	–	–	–	1510 ± 802 nM	> 10000 nM	–	58%	54%	24%	3%	12%

Now from value to compound:

Ki (CDK1B)	Ki (CDK 2A)	Ki (CDK4D1)	Ki (CDK7H)	Ki (CDK9T1)	GI50 (MV4-11)	GI50 (MDA-MB-453)	Ki (CDK6D3)	remaining activity at 10 µM (CDK1B)	remaining activity at 10 µM (CDK 2A)	remaining activity at 10 µM (CDK7H)	remaining activity at 10 µM (CDK9T1)	remaining activity at 10 µM (CDK6D3)	Structure (SMILES)
> 5000 nM	2340 nM	180 nM	> 5000 nM	> 5000 nM	5290 ± 811 nM	> 10000 nM	–	–	–	–	–	–	CCc1nc(C)c(-c2ccnc(Nc3ccc(N4CCOCC4)cn3)n2)s1 [Compound 12, 4-(2-Ethyl-4-methylthiazol-5-yl)-N-(5-morpholinopyridin-2-yl)pyrimidin-2-amine]
> 5000 nM	889 nM	6 nM	> 5000 nM	2850 nM	259 ± 241 nM	–	114 nM	–	–	–	–	–	CNc1nc(C)c(-c2ccnc(Nc3ccc(N4CCNCC4)cn3)n2)s1 [Compound 26, N,4-dimethyl-5-(2-((5-(piperazin-1-yl)pyridin-2-yl)amino)pyrimidin-4-yl)thiazol-2-amine]
–	–	1 nM	–	–	14 ± 6 nM	–	40 nM	56%	34%	39%	11%	–	CNc1nc(C)c(-c2nc(Nc3ccc(N4CCNCC4)cn3)ncc2C#N)s1 [Compound 27, 4-(4-methyl-2-(methylamino)thiazol-5-yl)-2-((5-(piperazin-1-yl)pyridin-2-yl)amino)pyrimidine-5-carbonitrile]
–	–	4 nM	–	–	56 ± 4 nM	–	32 nM	66%	36%	43%	9%	–	CNc1nc(C)c(-c2nc(Nc3ccc(N4CCN(C)CC4)cn3)ncc2C#N)s1 [Compound 30, 4-(4-methyl-2-(methylamino)thiazol-5-yl)-2-((5-(4-methylpiperazin-1-yl)pyridin-2-yl)amino)pyrimidine-5-carbonitrile]
> 5000 nM	459 nM	20 nM	> 5000 nM	> 5000 nM	643 ± 18 nM	–	610 nM	–	–	–	–	–	CNc1nc(C)c(-c2ccnc(Nc3ccc(N4CCOCC4)cn3)n2)s1 [Compound 36, N,4-dimethyl-5-(2-((5-morpholinopyridin-2-yl)amino)pyrimidin-4-yl)thiazol-2-amine]
> 5000 nM	201 nM	4 nM	> 5000 nM	> 5000 nM	465 ± 129 nM	–	64 nM	–	–	–	–	–	CNc1nc(C)c(-c2nc(Nc3ccc(N4CCOCC4)cn3)ncc2C#N)s1 [Compound 37, 4-(4-methyl-2-(methylamino)thiazol-5-yl)-2-((5-morpholinopyridin-2-yl)amino)pyrimidine-5-carbonitrile]
> 5000 nM	69 nM	44 nM	> 5000 nM	> 5000 nM	4680 ± 298 nM	5360 ± 501 nM	–	–	–	–	–	–	Cc1nc(N(C)C)sc1-c1nc(Nc2ccc(N3CCOCC3)cn2)ncc1F [Compound 50, 5-(5-fluoro-2-((5-morpholinopyridin-2-yl)amino)pyrimidin-4-yl)-N,N,4-trimethylthiazol-2-amine]
–	–	–	> 5000 nM	> 5000 nM	–	1440 ± 304 nM	–	–	–	–	–	–	Cc1nc(NC2CCCC2)sc1-c1nc(Nc2ccc(N3CCOCC3)cn2)ncc1F [Compound 72]
